In ChEMBL document CHEMBL1201862, “PubChem BioAssay data set” (2004):
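Tested at 5 concentrations; 48 h exposure; 96-well plates; endpoints linearly interpolated, else capped at highest concentration. GI50 marks 50% less growth.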 Activity calls are given as the source filed them. No stated cut-off is given here; in the data, active = GI50 up to about 1.1 µM and inactive = higher.

What was measured:
Assay in all cases: NCI anticancer screen, dose series, 48 h
[1] = system: BT-549
[2] = system: LOX IMVI
[3] = system: M14
[4] = system: SNB-19
[5] = system: HT-29
[6] = system: OVCAR-3
[7] = system: SF-295
[8] = system: K562
[9] = system: MCF7
[10] = system: PC-3
[11] = system: CAKI-1
[12] = system: Hs-578T
[13] = system: MOLT-4
[14] = system: A498
[15] = system: SK-MEL-28
[16] = system: NCI-H460
[17] = system: NCI-H23
[18] = system: RPMI-8226
[19] = system: T47D
[20] = system: SK-MEL-5

SMILES | GI50 [1] | GI50 [2] | GI50 [3] | GI50 [4] | GI50 [5] | GI50 [6] | GI50 [7] | GI50 [8] | GI50 [9] | GI50 [10] | GI50 [11] | GI50 [12] | GI50 [13] | GI50 [14] | GI50 [15] | GI50 [16] | GI50 [17] | GI50 [18] | GI50 [19] | GI50 [20]
O=[N+]([O-])c1cc(Cc2cc([N+](=O)[O-])c3cccnc3c2O)c(O)c2ncccc12 | 21.7 µM (inactive) | 3.91 µM (inactive) | 6.07 µM (inactive) | 6.78 µM (inactive) | 10.2 µM (inactive) | 2.38 µM (inactive) | 6.15 µM (inactive) | 4.16 µM (inactive) | 4.4 µM (inactive) | 4.41 µM (inactive) | 8.77 µM (inactive) | 9.51 µM (inactive) | 2.12 µM (inactive) | 14.2 µM (inactive) | 13.6 µM (inactive) | 2.18 µM (inactive) | 9.48 µM (inactive) | 4.57 µM (inactive) | 4.48 µM (inactive) | 6.79 µM (inactive)
CCOC(=O)c1cc([N+](=O)[O-])cc([N+](=O)[O-])c1Sc1[nH]cnc2ncnc1-2 | 2.24 µM (inactive) | 0.454 µM (active) | 0.869 µM (active) | 19.5 µM (inactive) | 2.37 µM (inactive) | 1.12 µM (active) | 7.29 µM (inactive) | 0.661 µM (active) | 1.61 µM (inactive) | 3.73 µM (inactive) | 1.85 µM (inactive) | 6.92 µM (inactive) | 1.24 µM (inactive) | 12.2 µM (inactive) | 3.13 µM (inactive) | 8.81 µM (inactive) |  | 1.65 µM (inactive) | 1.2 µM (inactive) | 5.94 µM (inactive)
CC(=O)Nc1ccc(Nc2cc(=O)n(C)c(=O)[nH]2)cc1 | > 100 µM (inactive) | > 100 µM (inactive) | > 100 µM (inactive) | > 100 µM (inactive) | > 100 µM (inactive) | > 100 µM (inactive) | > 100 µM (inactive) | > 100 µM (inactive) | > 100 µM (inactive) | > 100 µM (inactive) | > 100 µM (inactive) | > 100 µM (inactive) | > 100 µM (inactive) | > 100 µM (inactive) | > 100 µM (inactive) | > 100 µM (inactive) | > 100 µM (inactive) | > 100 µM (inactive) | > 100 µM (inactive) | > 100 µM (inactive)
CCn1c2ccc(C(=O)CCCN(C)C)cc2c2cc(C(=O)CCCN(C)C)ccc21 | 3.38 µM (inactive) | 1.12 µM (active) | 1.95 µM (inactive) | 1.6 µM (inactive) | 0.509 µM (active) | 1.27 µM (inactive) | 3.64 µM (inactive) | 2.05 µM (inactive) | 0.659 µM (active) | 1.3 µM (inactive) | 2.55 µM (inactive) | 2.32 µM (inactive) | 0.256 µM (active) | 1.32 µM (inactive) | 5.66 µM (inactive) | 0.421 µM (active) | 1.61 µM (inactive) | 1.77 µM (inactive) | 10.2 µM (inactive) | 4.69 µM (inactive)
CSc1c(C#N)c2n(c3ccccc3[n+]2C)c2ncccc12 | 28.4 µM (inactive) | 14.4 µM (inactive) | 21.2 µM (inactive) | 32.6 µM (inactive) | 26.7 µM (inactive) | 22.2 µM (inactive) | 18.9 µM (inactive) | 37.9 µM (inactive) | 15 µM (inactive) | 19.1 µM (inactive) | 21 µM (inactive) | 36.7 µM (inactive) | 92.5 µM (inactive) | 25.8 µM (inactive) | 21.4 µM (inactive) | 15.7 µM (inactive) | 21.5 µM (inactive) | 25.4 µM (inactive) | 25.8 µM (inactive) | 12.9 µM (inactive)
Nc1c(/C=C/c2cc3cc(C4=NCCN4)ccc3o2)[nH]c2cc(C3=NCCN3)ccc12 | 43.6 µM (inactive) | 38.8 µM (inactive) | 38.5 µM (inactive) | 66.2 µM (inactive) | 34.3 µM (inactive) | 35.6 µM (inactive) | 34.3 µM (inactive) | 41.3 µM (inactive) | 40.7 µM (inactive) | 34.6 µM (inactive) | 38.3 µM (inactive) | > 100 µM (inactive) | 28.9 µM (inactive) | > 100 µM (inactive) | 32 µM (inactive) | 32.7 µM (inactive) | 60.7 µM (inactive) | 39 µM (inactive) | 46.5 µM (inactive) | 30.8 µM (inactive)
CC(C)(C)C1CCC2c3c([nH]c4ccccc34)C3C(=O)N(c4cccc(Cl)c4)C(=O)C3C2C1 (centres undefined) | 21.1 µM (inactive) | 7.48 µM (inactive) | 9.98 µM (inactive) | 33.5 µM (inactive) | 6.38 µM (inactive) | 15.1 µM (inactive) | 18.5 µM (inactive) | 2.44 µM (inactive) | 2.06 µM (inactive) | 7.1 µM (inactive) | 17.8 µM (inactive) | 23.7 µM (inactive) | 1.85 µM (inactive) | 22.6 µM (inactive) | 14.2 µM (inactive) | 4.63 µM (inactive) | 8.49 µM (inactive) | 9.27 µM (inactive) | 9.16 µM (inactive) | 13.5 µM (inactive)
